In patent US10669290B2, “Beta-lactamase inhibitors” (priority 2012, dated 2020):

Tests used:
Type in all cases: cell-based
K.P. A-1797 KPC-2 VIM-4 = test: Broth microdilution MIC, K. pneumoniae A-1797; settings: Klebsiella pneumoniae; fixed meropenem 4 μg/mL, CAMHB, 16-20 hours 37° C.; read-out: MIC of exemplary compounds in presence of fixed β-lactams, Fixed Mero, K.P. A-1797 KPC-2 VIM-4
Excerpt: (§1) To determine the ability of test compounds to potentiate the inhibition of the growth of bacterial strains that produce beta-lactamase enzymes, classic cell based broth microdilution MIC assays were employed. Six bacteria strains producing beta-lactamase enzymes were used: E. coli expressing the Class A Extended Spectrum Beta-Lactamase (ESBL) CTX-M-15, E. cloacae expressing the Class C P99, K. pneumoniae expressing the Class A carbapenemase KPC-2, P. aeruginosa expressing the Class B carbapenemase VIM-2, K. pneumoniae expressing the class A carbapenemase KPC-2 and the class B carbapenemase VIM-4, and S. aureus producing the Class A penicillinase PC-1. The assay was conducted in Cation Adjusted Mueller Hinton Broth (CAMHB, BD #212322, BD Diagnostic Systems, Sparks, Md.). Bacteria strains were grown for 3-5 hours in CAMBH broth. Test compounds were added to a microtiter plate in 2-fold serial dilutions in CAMHB in a final concentration range of 32 μg/mL to 0.25 μg/ml. An overlay of CAMHB containing a Beta-lactam was added to the compounds at a final static concentration of 4 μg/ml. […] In addition to the titration of test compounds the MICs of a panel of control beta-lactams is also tested to ensure the strains are behaving consistently from test to test. Once the test compound and antibiotics are added the plates can be inoculated according to CLSI broth microdilution method. After inoculation the plates are incubated for 16-20 hours at 37° C. then the Minimal Inhibitory Concentration (MIC) of the test compound is determined visually.
(§2) Using the methodology described above in EXAMPLE III, exemplary compounds for Formula I or Formula Ia were evaluated for their ability to inhibit the growth of β-lactamase producing bacteria in the presence of a β-lactam antibiotic.

P. aerug. Ps296 VIM-2 = test: Broth microdilution MIC, P. aeruginosa Ps296; settings: Pseudomonas aeruginosa; fixed meropenem 4 μg/mL, CAMHB, 16-20 hours 37° C.; read-out: MIC of exemplary compounds in presence of fixed β-lactams, Fixed Mero, P. aerug. Ps296 VIM-2
Excerpt: as §1, §2

E. coli ESBL4 CTX-M-15 = test: Broth microdilution MIC, E. coli ESBL4; settings: Escherichia coli, ESBL4CTXM15; fixed ceftazidime 4 μg/mL, CAMHB, 16-20 hours 37° C.; read-out: MIC of exemplary compounds in presence of fixed β-lactams, Fixed CAZ, E. coli ESBL4 CTX-M-15
Excerpt: as §1, §2

E. cl 144200 p99 AmpC = test: Broth microdilution MIC, E. cloacae 144200; settings: Enterobacter cloacae; fixed ceftazidime 4 μg/mL, CAMHB, 16-20 hours 37° C.; read-out: MIC of exemplary compounds in presence of fixed β-lactams, Fixed CAZ, E. cl 144200 p99 AmpC
Excerpt: as §1, §2

K.P. 156319 KPC-3 = test: Broth microdilution MIC, K. pneumoniae 156319; settings: Klebsiella pneumoniae; fixed meropenem 4 μg/mL, CAMHB, 16-20 hours 37° C.; read-out: MIC of exemplary compounds in presence of fixed β-lactams, Fixed Mero, K.P. 156319 KPC-3
S. aureus MSSA-7 PC-1 = test: Broth microdilution MIC, S. aureus MSSA-7; settings: Staphylococcus aureus, fixed piperacillin 4 μg/mL, CAMHB, 16-20 hours 37° C., read-out: MIC of exemplary compounds in presence of fixed β-lactams, Fixed Pip, S. aureus MSSA-7 PC-1
Excerpt: as §1, §2

Row | MIC (K.P. A-1797 KPC-2 VIM-4) | MIC (P. aerug. Ps296 VIM-2) | MIC (E. coli ESBL4 CTX-M-15) | MIC (E. cl 144200 p99 AmpC) | MIC (K.P. 156319 KPC-3) | MIC (S. aureus MSSA-7 PC-1) | Compound
1 | < 4 µg/mL | < 4 µg/mL | < 4 µg/mL | < 4 µg/mL | < 4 µg/mL | < 4 µg/mL | NCCN[C@H]1CC[C@H](CC(=O)N[C@H]2Cc3cccc(C(=O)O)c3OB2O)CC1 [Example 15, (R)-3-(2-(trans-4-(2-aminoethylamino)cyclohexyl)acetamido)-2-hydroxy-3,4-dihydro-2H-benzo[e][1,2]oxaborinine-8-carboxylic acid]
2 | 8 to 32 µg/mL | 8 to 32 µg/mL | < 4 µg/mL | < 4 µg/mL | < 4 µg/mL | < 4 µg/mL | NCC(=O)N[C@H]1CC[C@H](CC(=O)N[C@H]2Cc3cccc(C(=O)O)c3OB2O)CC1 [Example 68, (R)-3-(2-(trans-4-(2-aminoacetamido)cyclohexyl)acetamido)-2-hydroxy-3,4-dihydro-2H-benzol[e][1,2]oxaborinine-8-carboxylic acid]
3 | 8 to 32 µg/mL | < 4 µg/mL | < 4 µg/mL | < 4 µg/mL | < 4 µg/mL | 8 to 32 µg/mL | N[C@@H](C(=O)N[C@H]1Cc2cccc(C(=O)O)c2OB1O)C1CCCCC1 [Example 42, (R)-3-((R)-2-amino-2-cyclohexylacetamido)-2-hydroxy-3,4-dihydro-2H-benzo[e][1,2]oxaborinine-8-carboxylic acid]
4 | > 32 µg/mL | < 4 µg/mL | < 4 µg/mL | < 4 µg/mL | < 4 µg/mL | < 4 µg/mL | O=C(C[C@H]1CC[C@H](N(Cc2ncc[nH]2)Cc2ncc[nH]2)CC1)N[C@H]1Cc2cccc(C(=O)O)c2OB1O [Example 69, (R)-3-(2-(trans-4-(bis((1H-imidazol-2-yl)methyl)amino)cyclohexyl)acetamido)-2-hydroxy-3,4-dihydro-2H-benzo[e][1,2]oxaborinine-8-carboxylic acid]
5 | > 32 µg/mL | 8 to 32 µg/mL | < 4 µg/mL | < 4 µg/mL | 8 to 32 µg/mL | < 4 µg/mL | O=C(CC1CCCCC1)N[C@H]1Cc2cccc(C(=O)O)c2OB1O [Example 31, (R)-3-(2-cyclohexylacetamido)-2-hydroxy-3,4-dihydro-2H-benzo[e][1,2]oxaborinine-8-carboxylic acid]
6 | < 4 µg/mL | < 4 µg/mL | < 4 µg/mL | < 4 µg/mL | < 4 µg/mL | < 4 µg/mL | CC(NC(=O)C1C[C@H](N)[C@@H](N)C1)C(=O)N[C@H]1Cc2cccc(C(=O)O)c2OB1O (stereo partly drawn) [Example 38]
7 | > 32 µg/mL | > 32 µg/mL | < 4 µg/mL | < 4 µg/mL | < 4 µg/mL | < 4 µg/mL | O=C(C[C@H]1CC[C@@H](N2CCNCC2)CC1)N[C@H]1Cc2cccc(C(=O)O)c2OB1O [Example 17, (R)-2-hydroxy-3-(2-(cis-4-(piperazin-1-yl)cyclohexyl)acetamido)-3,4-dihydro-2H-benzo[e][1,2]oxaborinine-8-carboxylic acid]
8 | < 4 µg/mL | < 4 µg/mL | < 4 µg/mL | < 4 µg/mL | < 4 µg/mL | 8 to 32 µg/mL | NC[C@H]1CC[C@H](C(=O)N[C@H]2Cc3cccc(C(=O)O)c3OB2O)CC1 [Example 1, (R)-3-(trans-4-(aminomethyl)cyclohexanecarboxamido)-2-hydroxy-3,4-dihydro-2H-benzo[e][1,2]oxaborinine-8-carboxylic acid]
9 | > 32 µg/mL | < 4 µg/mL | < 4 µg/mL | < 4 µg/mL | 8 to 32 µg/mL | < 4 µg/mL | CN(C)CC(=O)NC[C@H]1CC[C@H](CC(=O)N[C@H]2Cc3cccc(C(=O)O)c3OB2O)CC1 [Example 5, (R)-3-(2-(trans-4-((2-(dimethylamino)acetamido)methyl)cyclohexyl)acetamido)-2-hydroxy-3,4-dihydro-2H-benzo[e][1,2]oxaborinine-8-carboxylic acid]
10 | < 4 µg/mL | < 4 µg/mL | < 4 µg/mL | < 4 µg/mL | < 4 µg/mL | < 4 µg/mL | O=C(C[C@H]1CC[C@H](NCCO)CC1)N[C@H]1Cc2cccc(C(=O)O)c2OB1O [Example 26, (R)-2-hydroxy-3-(2-(trans-4-(2-hydroxyethylamino)cyclohexyl)acetamido)-3,4-dihydro-2H-benzo[e][1,2]oxaborinine-8-carboxylic acid]
11 | < 4 µg/mL | < 4 µg/mL | < 4 µg/mL | < 4 µg/mL | < 4 µg/mL | < 4 µg/mL | O=C(C[C@H]1CC[C@H](NCCNC2CCCC2)CC1)N[C@H]1Cc2cccc(C(=O)O)c2OB1O [Example 73, (R)-3-(2-(trans-4-(2-(cyclopentylamino)ethylamino)cyclohexyl)acetamido)-2-hydroxy-3,4-dihydro-2H-benzo[e][1,2]oxaborinine-8-carboxylic acid]
12 | < 4 µg/mL | < 4 µg/mL | < 4 µg/mL | < 4 µg/mL | < 4 µg/mL | < 4 µg/mL | NCCNC(=O)NC1CC(CC(=O)N[C@H]2Cc3cccc(C(=O)O)c3OB2O)C1 (stereo partly drawn) [Example 58, (R)-3-(2-(3-(3-(2-aminoethyl)ureido)cyclobutyl)acetamido)-2-hydroxy-3,4-dihydro-2H-benzo[e][1,2]oxaborinine-8-carboxylic acid]
13 | < 4 µg/mL | 8 to 32 µg/mL | < 4 µg/mL | < 4 µg/mL | < 4 µg/mL | < 4 µg/mL | NCCNC[C@H]1CC[C@H](CC(=O)N[C@H]2Cc3cccc(C(=O)O)c3OB2O)CC1 [Example 10, (R)-3-(2-(trans-4-((2-aminoethylamino)methyl)cyclohexyl)acetamido)-2-hydroxy-3,4-dihydro-2H-benzo[e][1,2]oxaborinine-8-carboxylic acid]
14 | < 4 µg/mL | < 4 µg/mL | < 4 µg/mL | < 4 µg/mL | < 4 µg/mL | < 4 µg/mL | NCCCN[C@H]1CC[C@H](CC(=O)N[C@H]2Cc3cccc(C(=O)O)c3OB2O)CC1 [Example 60, (R)-3-(2-(trans-4-(3-aminopropylamino)cyclohexyl)acetamido)-2-hydroxy-3,4-dihydro-2H-benzo[e][1,2]oxaborinine-8-carboxylic acid]
15 | 8 to 32 µg/mL | < 4 µg/mL | < 4 µg/mL | < 4 µg/mL | < 4 µg/mL | < 4 µg/mL | N[C@H]1CC(CC(=O)N[C@H]2Cc3cccc(C(=O)O)c3OB2O)C[C@@H]1N [Example 37]
16 | > 32 µg/mL | > 32 µg/mL | < 4 µg/mL | < 4 µg/mL | 8 to 32 µg/mL | < 4 µg/mL | CN1CCN([C@H]2CC[C@H](CC(=O)N[C@H]3Cc4cccc(C(=O)O)c4OB3O)CC2)C1=N [Example 52, (R)-2-hydroxy-3-(2-(trans-4-(2-imino-3-methylimidazolidin-1-yl)cyclohexyl)acetamido)-3,4-dihydro-2H-benzo[e][1,2]oxaborinine-8-carboxylic acid]
17 | < 4 µg/mL | 8 to 32 µg/mL | < 4 µg/mL | < 4 µg/mL | < 4 µg/mL | 8 to 32 µg/mL | NC1CCC(O)(CC(=O)N[C@H]2Cc3cccc(C(=O)O)c3OB2O)CC1 (stereo partly drawn) [Example 44, 3-[2-(4-Amino-1-hydroxy-cyclohexyl)-acetylamino]-2-hydroxy-3,4-dihydro-2H-benzo[e][1,2]oxaborinine-8-carboxylic acid]
